Data from US20040224981A1, “Antibacterial methods and compositions” (priority 2003, published 2004).
Where two headings read alike, the source gives them in different places.

Columns and labels:
[1] = tested on: S. aureus; experiment: MIC against S. aureus strains and clinical isolates (broth microdilution); format: cell-based, Staphylococcus aureus; conditions: for MIC / MIC50 / MIC90: Staphylococcus aureus; for MIC50: read-out: MIC50; for MIC90: read-out: MIC90
Outline: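 Broth microdilution per NCCLS in cation-supplemented Mueller-Hinton broth, final inoculum 5×10^5 CFU/ml from 0.5 McFarland suspensions diluted 1:10. Trays incubated aerobically overnight with quality control strains each run. Checkerboard FIC index: ≦0.5 synergy, >0.5 to 4 additive/indifferent, >4.0 antagonism.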

[2] = tested on: E. faecalis; experiment: MIC against E. faecalis; format: cell-based; conditions: for Range (MIC): in µg/mL; for MIC: Enterococcus faecalis, read-out: MIC
[3] = tested on: S. hemolyticus; experiment: MIC against S. hemolyticus; format: cell-based; conditions: Table 4, read-out: MIC
Method: (§1) The MRS inhibitor 4 alone and in combination with mupirocin (mupirocin salt and 1:1 combination) were tested against a collection of Gram-positive pathogens.
(§2) The MRS inhibitor 8 was also prepared as a fusidate and mupirocinate salt and tested for antibacterial activity against Gram-positive bacteria (Table 3). […] MRSi compound 8 alone and the fusidate and mupirocin salts were active against mupirocin-resistant S. aureus and S. epidermidis and organisms such as E. faecalis that are not susceptible to mupirocin.
(§3) The MRS inhibitor 5 acetate and mupirocin salts were tested against a collection of Gram-positive bacteria.

[4] = tested on: S. pyogenes; experiment: MIC against S. pyogenes; format: cell-based, Streptococcus pyogenes; conditions: for MIC: Streptococcus pyogenes, Table 4, read-out: MIC
Method: as §1
S. pyogenes is also a significant skin pathogen and 48 recent clinical isolates were tested for their susceptibility to MRSi compound 5 alone (acetate) and in combination (1:1) with mupirocin (mupirocinate).

[5] = tested on: S. epidermidis; experiment: MIC against S. epidermidis; format: cell-based; conditions: Staphylococcus epidermidis, Table 4, read-out: MIC
Method: as §1, §2, §3

[6] = tested on: MRS-resistant mutants of S. aureus; experiment: Susceptibility (MIC) of MRS-resistant mutants of S. aureus; format: cell-based; conditions: Staphylococcus aureus
Method: MRS-resistant mutants generated in vitro in either serial passage or spontaneous resistance development studies were evaluated for susceptibility to mupirocin alone and in a 1:1 combination with MRSi compound 5.

[7] = all S. aureus isolates of Table 6
[8] = oxacillin-resistant S. aureus, Oxa-R (42)
[9] = oxacillin-susceptible S. aureus, Oxa-S (20)
[10] = recent clinical isolates of S. aureus, All (62)
[11] = recent clinical isolates of E. faecalis, ALL (28)
[12] = 48 recent clinical isolates of S. pyogenes

C=C(F)c1sc(CNCCCNc2cc(=O)c3ccccc3[nH]2)c(C)c1Br [MRSi Cmpd 5 acetate, N-(4-bromo-5-(1-fluorovinyl)-3-methylthiophen-2-ylmethyl)-N′-(1H-quinolin-4-one)propane-1,3-diamine]
0.03 to 0.25: MIC Range ([4]; 48 recent clinical isolates of S. pyogenes, in µg/mL)
0.25 µg/mL: MIC ([1]; ATCC43300, Table 4, S. aureus ATCC 43300 (ORSA), read-out: MIC) | MIC ([3]; S. hemolyticus NRS116) | MIC ([5]; S. epidermidis NRS6)
≦0.008-0.5 μg/mL: MIC Range [1, 7]
0.004 µg/mL: MIC ([2]; Table 4, E. faecalis 1)
≦0.008 to 0.12 μg/mL: MIC Range [1, 9]
0.06 µg/mL: MIC ([1]; ATCC29213, Table 4, S. aureus ATCC 29213, read-out: MIC) | MIC ([1]; NRS 24 / VISA, VISA, S. aureus NRS24 (HIP09143), read-out: MIC) | MIC ([1]; NRS54, Table 6, high-level mupirocin-resistant S. aureus NRS54, read-out: MIC) | MIC ([1]; NRS 54 / VISA, VISA, S. aureus NRS54 (Brazil), read-out: MIC) | MIC ([1]; Table 6, S. aureus (mupirocin-susceptible) 087-2789, read-out: MIC) | MIC ([1]; Table 6, high-level mupirocin-resistant S. aureus 1079101, read-out: MIC) | MIC ([1]; Table 6, high-level mupirocin-resistant S. aureus LZ6, read-out: MIC) | MIC90 [1, 9] | MIC ([1]; oxacillin-susceptible S. aureus, Oxa-S (20), read-out: MIC Mode) | MIC ([1]; recent clinical isolates of S. aureus, All (62), read-out: MIC Mode) | MIC50 [4, 12] | Mode (MIC) [4, 12] | MIC ([5]; S. epidermidis NRS7) | MIC ([6]; ATCC29213, S. aureus ATCC 29213, metS wild-type) | MIC ([6]; ATCC43300, S. aureus ATCC 43300, metS wild-type)
0.015 µg/mL: MIC ([1]; NRS 1 / VISA, VISA, S. aureus NRS1 (Mu50), read-out: MIC) | MIC ([1]; Table 6, high-level mupirocin-resistant S. aureus LZ1, read-out: MIC) | MIC ([1]; Table 6, low-level mupirocin-resistant S. aureus 014-354, read-out: MIC) | MIC ([1]; Table 6, low-level mupirocin-resistant S. aureus 031-1334, read-out: MIC) | MIC90 ([2]; E. faecalis, Van-R(11)) | MIC ([2]; ATCC29212, Table 4, E. faecalis ATCC 29212) | MIC ([2]; Table 4, E. faecalis 7) | MIC90 [2, 11]
0.008 to 0.25 µg/mL: MIC ([1]; VISA, all 8 vancomycin-intermediate S. aureus (VISA) isolates, read-out: MICs ranging)
8 µg/mL: MIC ([6]; S. aureus SP-1B5, metS I57N)
≤ 0.008 µg/mL: MIC ([1]; NRS107, Table 4, S. aureus NRS107 (mupA), read-out: MIC) | MIC ([1]; NRS107, Table 6, high-level mupirocin-resistant S. aureus NRS107, read-out: MIC) | MIC ([1]; Table 6, low-level mupirocin-resistant S. aureus 036-1298, read-out: MIC) | MIC ([1]; Table 6, low-level mupirocin-resistant S. aureus Miles Hall, read-out: MIC)
4 µg/mL: MIC ([6]; S. aureus SP-1A2, metS A247E) | MIC ([6]; S. aureus SP-2C4, metS L213W) | MIC ([6]; S. aureus SP-9B5, metS I57N, V296F) | MIC ([6]; S. aureus SP-21A, metS A77V) | MIC ([6]; S. aureus SR1, metS I57N)
0.008 µg/mL: MIC ([1]; NRS 3 / VISA, VISA, S. aureus NRS3 (HIP5827), read-out: MIC) | MIC ([1]; NRS 4 / VISA, VISA, S. aureus NRS4 (HIP5836), read-out: MIC) | MIC ([1]; NRS 49 / VISA, VISA, S. aureus NRS49 (Korea), read-out: MIC) | MIC ([1]; NRS 56 / VISA, VISA, S. aureus NRS56 (Brazil), read-out: MIC) | MIC90 ([2]; E. faecalis, Van-S (16))
< 0.004 µg/mL: MIC50 ([2]; E. faecalis, Van-R(11)) | Mode (MIC) ([2]; E. faecalis, Van-R(11)) | MIC50 [2, 11] | Mode (MIC) [2, 11]
≦0.008 to 1 μg/mL: MIC Range [1, 8] | MIC Range [1, 10]
0.12 µg/mL: MIC90 [1, 10] | MIC ([3]; S. hemolyticus NRS50) | MIC90 [4, 12] | MIC ([4]; ATCC19615, S. pyogenes ATCC 19615) | MIC ([4]; S. pyogenes MB000143) | MIC ([5]; S. epidermidis NRS8)
16 µg/mL: MIC ([6]; S. aureus SP-2B5, metS I57N, R100S) | MIC ([6]; S. aureus SP-2D4, metS I57N)
0.5 µg/mL: MIC ([1]; NRS127, Table 6, low-level mupirocin-resistant S. aureus NRS127, read-out: MIC) | MIC ([1]; Table 6, low-level mupirocin-resistant S. aureus 1081148, read-out: MIC) | MIC90 [1, 7] | MIC90 [1, 8]
<0.004-0.015: Range (MIC) ([2]; E. faecalis, Van-R(11)) | Range (MIC) ([2]; E. faecalis, Van-S (16)) | Range (MIC) [2, 11]
0.03 µg/mL: MIC ([1]; NRS 18 / VISA, VISA, S. aureus NRS18 (HIP06854), read-out: MIC) | MIC ([1]; Table 6, S. aureus (mupirocin-susceptible) 010-100, read-out: MIC) | MIC ([1]; Table 6, S. aureus (mupirocin-susceptible) LZ9, read-out: MIC) | MIC ([1]; Table 6, S. aureus (mupirocin-susceptible) LZ10, read-out: MIC) | MIC ([1]; Table 6, high-level mupirocin-resistant S. aureus 010-420, read-out: MIC) | MIC ([1]; Table 6, high-level mupirocin-resistant S. aureus 25-670, read-out: MIC) | MIC ([1]; Table 6, high-level mupirocin-resistant S. aureus 87-2797, read-out: MIC) | MIC ([1]; Table 6, low-level mupirocin-resistant S. aureus LZ8, read-out: MIC) | MIC50 [1, 7] | MIC50 [1, 8] | MIC ([1]; oxacillin-resistant S. aureus, Oxa-R (42), read-out: MIC Mode) | MIC50 [1, 9] | MIC50 [1, 10]
≦0.004: MIC50 ([2]; E. faecalis, Van-S (16)) | Mode (MIC) ([2]; E. faecalis, Van-S (16))
